Experimental findings from patent US20190062322A1, “PUMA INHIBITOR, METHOD FOR PREPARATION THEREOF, AND USE THEREOF” (FOURTH MILITARY MEDICAL UNIVERSITY, priority 2016, published 2019) are described below.

The IC50 is the concentration needed to halve the response being measured.

In the experiment the target is Mcl-1 (Homo sapiens, UniProt Q07820). The experiment can be described thus: FPA competition assay, inhibition of Mcl-1 / FITC-Mcl-BH3 binding. The settings on record: 250 nM Mcl-1 and 250 nM FITC-Mcl-BH3 probe, pH 7.5, cells printed in nM. An excerpt:
Experiment 1 the Inhibition Assay of Compounds 1˜12 to Mcl-1
FPA competition assays were adopted to evaluate the binding affinity of compounds to Mcl-1. The FITC labelled BH3 peptide of Mcl-1 (FITC-Mcl-BH3, FITC-AHx-KALETLRRVGD GVQRNHITAF-NH2) was synthesized and used as fluorescence probe in the FPA competition assays. The binding of FITC-Mcl-BH3 and Mcl-1 can enhance the polarized light. While the binding of compounds and Mcl-1 would reduce the polarization, IC50 is the compound concentration that displaces 50% of the fluorescent ligand from the ligand-receptor complex.
All assays were performed in the assay buffer (pH 7.5) composed of 20 mM Tris, 50 mM NaCl, 3 mM DTT and 2% DMSO. The FPA competition assays were carried out in the 96-well, black, flat-bottom plates (Nunc). To check the interference effects of candidate compounds on the interaction between Mcl-1 and FITC-Mcl-BH3, solutions containing 250 nM Mcl-1 and 250 nM fluorescence probes were titrated with […] selected compounds (0-128 μM, 2-times gradient) dissolved in the assay buffer. The emission fluorescence changes were recorded from 480 to 540 nm by TECAN Infinite M1000 Microplate Spectrophotometer with excitation wavelength being 450 nm. The IC50 were calculated.

Sequence of Mcl-1 (Q07820 whole entry, species assumed): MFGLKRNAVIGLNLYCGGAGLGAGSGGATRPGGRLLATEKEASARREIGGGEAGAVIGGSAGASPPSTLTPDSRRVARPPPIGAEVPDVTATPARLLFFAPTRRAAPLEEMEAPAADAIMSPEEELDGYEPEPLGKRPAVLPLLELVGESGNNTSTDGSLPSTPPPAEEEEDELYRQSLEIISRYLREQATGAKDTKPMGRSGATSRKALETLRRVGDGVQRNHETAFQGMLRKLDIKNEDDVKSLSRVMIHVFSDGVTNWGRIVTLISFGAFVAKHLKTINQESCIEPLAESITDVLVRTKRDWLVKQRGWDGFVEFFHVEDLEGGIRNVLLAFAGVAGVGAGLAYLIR

The compound `COc1ccc(/C=C2\SC(N3CCN(CCO)CC3)=NC2=O)cc1` [Compound 4] showed an IC50 of 161 nM.

On to `COc1ccc(C=C2SC(N3CCC(CCO)CC3)=NC2=O)cc1` [Compound 11], for which the IC50 was 52.1 nM.

`O=C1N=C(N2CCC(CCO)CC2)SC1=Cc1ccc(Cl)cc1` [Compound 12] yielded an IC50 of 369 nM.

`Cc1ccc(C=C2SC(N3CCN(CCO)CC3)=NC2=O)cc1` [Compound 3] had an IC50 of 401 nM.

Take `O=C1N=C(N2CCN(CCO)CC2)S/C1=C\c1ccc(Cl)cc1` [Compound 5]: the IC50 was found to be 89.7 nM.

Regarding `O=C1N=C(N2CCC(CCO)CC2)SC1=Cc1ccccc1` [Compound 8], the IC50 was 589 nM.
